Test results as given in patent US12673915B2, “Precursor compound of hexahydro-beta-acid component compound, feed composition and use thereof” (WISORIG TECHNOLOGIES PTE. LIMITED, priority 2020, dated 2026).

Columns and labels:
[1] = Thermal stability testing at 60° C. of ingredient and 1% premix (HPLC); format: physicochemical
Protocol: Preparation of a sample of 1% premix of an ingredient: 1 g of an ingredient was respectively weighed out and evenly mixed with 99 g of corncob meal in a mixer to give a sample of 1% premix of an ingredient for testing.
Thermal stability testing at 60° C.: The samples of an ingredient and 1% premix thereof were respectively spread in petri dishes to form thin layers of <5 mm, and kept at 60° C. Two replications for a sample were taken in parallel on day 5 and day 10 for HPLC analysis.
25.0 mg of an ingredient was accurately weighed out and dissolved in an appropriate amount of methanol by ultrasonication. The solution was then transferred to a volumetric flask and diluted to 25 mL with methanol to give a stock solution. The samples from the stock solution were diluted with methanol respectively to a concentration of 100 ppm, 500 ppm, and 1000 ppm of work solution, and then the working solutions were filtered by 0.22 μm organic membranes. Between the concentration of a sample and the response value of HPLC peak area thereof, the linearity was adjusted and detected to give a standard curve.
2.3: Preparation of Sample Solution 25.0 mg of an ingredient and 2.0000 g of a sample of 1% premix thereof were respectively accurately weighed out, and dissolved in 25 mL of methanol by ultrasonication for 10 minutes. The resulting solutions were filtered by organic membranes and then analyzed by HPLC. 2.4: Testing Conditions for HPLC • Column: Symmetry Cis column (Waters; 250 mm*4.6 mm, 5 μm). • Mobile phase: 0.02% phosphoric acid:methanol=5:95 (v:v). • Wavelength: 235 nm. • Temperature of the Column: 25° C. • Injection volume: 10 μL. • Flow rate: 1 mL/min. 3: Results

[2] = test system: Duroc×Landrace×Yorkshire cross-bred bacon-type piglets; assay: Effect on the production performance of hogs (14-day feeding trial); format: in vivo; conditions: 14 days, piglets
Description: 480 67-day-old Duroc×Landrace×Yorkshire cross-bred bacon-type piglets with similar body weight, were randomly divided into 16 groups, with 3 replications per group, 10 piglets per replication and equal amounts of males and females. The pig pen and tools were sterilized before the trial. In the trial, the piglets were kept in separate regions in the same pig pen under the same feeding and management conditions, were given a free hand with the feed and the water, and were fed twice a day. The groups were known as control group (group 1) and test groups 2 to 16. The piglets of the control group were fed with basal formula feed only, while those of the test groups 2 to 16 were respectively fed with basal formula feed mixed with different additives, wherein the active ingredient of the additives was a hexahydro-β-acid compound or a prodrug of a hexahydro-β-acid compound provide herein, and the content thereof in the feed was 5 or 25 ppm as shown in Table 4.
The trial lasted for 14 days. During the trial, each test group was not fed with other antioxidants or growth enhancers. On the 14th day, each test group was fed with no feed but water for 12 hours, and the piglets of each replication as one unit were weighed to calculate the average daily feed intake (ADFI, g/d per piglet), the average daily weight gain (ADG, g/d per piglet), and the feed conversion ratio (FCR). Average daily feed intake=(Total weight of provided feed−Weight of residual feed)/(Days of the trial×Number of piglets in each replicate) Average daily weight gain=(final average body weight−initial average body weight)/Days of the trial Feed conversion ratio=average daily feed intake/average daily weight gain

[3] = 1% Premix of an ingredient (corncob meal), Day 5
[4] = 1% Premix of an ingredient (corncob meal), Day 10

Row | SMILES | Residual amount of active ingredient [1, 3] | Residual amount of active ingredient [1, 4] | Residual amount of active ingredient ([1]; Ingredient, Day 5) | Residual amount of active ingredient ([1]; Ingredient, Day 10) | ADFI (average daily feed intake) ([2]; 5 ppm in feed) | ADG (average daily weight gain) ([2]; 5 ppm in feed) | FCR (feed conversion ratio) ([2]; 5 ppm in feed) | ADFI (average daily feed intake) ([2]; 25 ppm in feed) | ADG (average daily weight gain) ([2]; 25 ppm in feed) | FCR (feed conversion ratio) ([2]; 25 ppm in feed) | change of active ingredient ([1]; active ingredient of 1% premix, 10-day testing period)
1 | CC(=O)OC1=C(CCC(C)C)C(=O)C(CCC(C)C)(CCC(C)C)C(O)=C1C(=O)C(C)C [hexahydro-colupulone mono-acetate, Hexahydro-Colupulone Mono-Acetate] | 99.40% | 98.68% | 99.69% | 99.44% | 860 g/d per piglet | 368 g/d per piglet | 2.340 | 960 g/d per piglet | 435 g/d per piglet | 2.208 | 
2 | CCCC(=O)OC1=C(CCC(C)C)C(=O)C(CCC(C)C)(CCC(C)C)C(O)=C1C(=O)C(C)C [hexahydro-colupulone mono-butyrate] | 98.21% | 97.57% | 99.76% | 99.64% | 991 g/d per piglet | 447 g/d per piglet | 2.217 | 973 g/d per piglet | 441 g/d per piglet | 2.205 | 
3 | CC(C)CCC1=C(O)C(C(=O)C(C)C)=C(O)C(CCC(C)C)(CCC(C)C)C1=O [hexahydro-colupulone, reference compound] | 97.02% | 93.56% | 99.76% | 99.10% |  |  |  | 894 g/d per piglet | 403 g/d per piglet | 2.218 | more than 5%
